Experiments:
Experiment in all cases: Premier Screen kinase activity screening (33P ATP filter binding)
Assay type in all cases: biochemical
[1] = target: T1, NEK6 (Homo sapiens, UniProt Q9HC98); conditions: 10 μM SCO-101, mean of assay duplicates, read-out: Kinase activity (percentage of DMSO control)
T1 construct: MRC in Dundee (screening service)
Outline: (§1)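 33P-ATP filter-binding read-out; compound at 10 μM, duplicates. Result given as mean % activity vs DMSO control ± SD.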

[2] = target: T2, EPH-B4 (Homo sapiens, UniProt P54760); conditions: 10 μM SCO-101, mean of assay duplicates, read-out: Kinase activity (percentage of DMSO control)
T2 construct: MRC in Dundee (screening service)
Outline: as §1

[3] = target: T3, NUAK1 (Homo sapiens, UniProt O60285); conditions: 10 μM SCO-101, mean of assay duplicates, read-out: Kinase activity (percentage of DMSO control)
T3 construct: purchased MRC in Dundee (Premier Screen service)
Outline: as §1

[4] = target: T4, TIE2 (Homo sapiens, UniProt Q02763); conditions: 10 μM SCO-101, mean of assay duplicates, read-out: Kinase activity (percentage of DMSO control)
T4 construct: MRC Dundee (screening service)
Outline: as §1

[5] = target: T5, MELK (Homo sapiens, UniProt Q14680); conditions: 10 μM SCO-101, mean of assay duplicates, read-out: Kinase activity (percentage of DMSO control)
T5 construct: MRC Dundee (screening service)
Outline: as §1

[6] = target: T6, MLK3 (Homo sapiens, UniProt Q16584); conditions: 10 μM SCO-101, mean of assay duplicates, read-out: Kinase activity (percentage of DMSO control)
T6 construct: purchased MRC Dundee, Premier Screen (contract screening service)
Outline: as §1

[7] = target: T7, BRK (Homo sapiens, UniProt Q13882); conditions: 10 μM SCO-101, mean of assay duplicates, read-out: Kinase activity (percentage of DMSO control)
T7 construct: MRC in Dundee (screening service)
Outline: as §1

[8] = target: PKCa (Homo sapiens, UniProt P17252); conditions: 10 μM SCO-101, mean of assay duplicates, read-out: Kinase activity (percentage of DMSO control)
Outline: as §1

[9] = target: T8, MSK1 (Homo sapiens, UniProt O75582); conditions: 10 μM SCO-101, mean of assay duplicates, read-out: Kinase activity (percentage of DMSO control)
T8 construct: MRC Dundee (screening service)
Outline: as §1

[10] = target: T9, ERK5 (Homo sapiens, UniProt Q13164); conditions: 10 μM SCO-101, mean of assay duplicates, read-out: Kinase activity (percentage of DMSO control)
T9 construct: MRC in Dundee (screening service)
Outline: as §1

[11] = target: T10, PDK1 (Homo sapiens, UniProt O15530); conditions: 10 μM SCO-101, mean of assay duplicates, read-out: Kinase activity (percentage of DMSO control)
T10 construct: purchased MRC Dundee, Premier Screen (contract screening service)
Outline: as §1

[12] = target: T11, JNK1 (Homo sapiens, UniProt P45983); conditions: 10 μM SCO-101, mean of assay duplicates, read-out: Kinase activity (percentage of DMSO control)
T11 construct: purchased MRC Dundee, Premier Screen (contract screening service)
Outline: as §1

[13] = target: PAK5 (Homo sapiens, UniProt Q9P286); conditions: 10 μM SCO-101, mean of assay duplicates, read-out: Kinase activity (percentage of DMSO control)
Outline: as §1

[14] = target: T12, SIK2 (Homo sapiens, UniProt Q9H0K1); conditions: 10 μM SCO-101, mean of assay duplicates, read-out: Kinase activity (percentage of DMSO control)
T12 construct: MRC in Dundee (screening service)
T12 sequence (Q9H0K1 whole entry, species assumed): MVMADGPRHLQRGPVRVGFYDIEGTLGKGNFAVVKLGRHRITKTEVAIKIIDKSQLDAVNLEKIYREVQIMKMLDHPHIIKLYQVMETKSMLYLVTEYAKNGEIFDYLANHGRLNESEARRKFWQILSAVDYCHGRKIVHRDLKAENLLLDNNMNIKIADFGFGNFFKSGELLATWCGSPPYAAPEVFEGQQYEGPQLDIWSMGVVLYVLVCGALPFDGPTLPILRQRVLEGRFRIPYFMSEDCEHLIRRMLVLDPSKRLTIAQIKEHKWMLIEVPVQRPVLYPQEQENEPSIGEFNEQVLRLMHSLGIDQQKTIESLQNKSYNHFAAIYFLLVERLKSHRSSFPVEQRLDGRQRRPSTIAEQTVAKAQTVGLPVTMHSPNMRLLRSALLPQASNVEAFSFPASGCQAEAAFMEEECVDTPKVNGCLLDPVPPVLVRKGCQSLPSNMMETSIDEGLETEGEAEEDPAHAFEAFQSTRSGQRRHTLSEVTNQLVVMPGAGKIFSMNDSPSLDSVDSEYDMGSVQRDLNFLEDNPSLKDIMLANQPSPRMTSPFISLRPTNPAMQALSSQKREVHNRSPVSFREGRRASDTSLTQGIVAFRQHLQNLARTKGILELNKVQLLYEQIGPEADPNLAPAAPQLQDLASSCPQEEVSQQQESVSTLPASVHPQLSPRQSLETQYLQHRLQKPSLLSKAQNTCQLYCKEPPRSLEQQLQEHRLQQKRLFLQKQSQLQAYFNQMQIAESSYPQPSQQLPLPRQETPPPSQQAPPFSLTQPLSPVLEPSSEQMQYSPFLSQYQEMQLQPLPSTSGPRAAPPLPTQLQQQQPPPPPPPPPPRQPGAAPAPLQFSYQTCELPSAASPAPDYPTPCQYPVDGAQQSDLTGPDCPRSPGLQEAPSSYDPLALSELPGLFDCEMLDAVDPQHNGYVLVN
Outline: as §1

[15] = target: T13, MKK2 (Homo sapiens, UniProt P36507); conditions: 10 μM SCO-101, mean of assay duplicates, read-out: Kinase activity (percentage of DMSO control)
T13 construct: MRC in Dundee (screening service)
T13 sequence (P36507 whole entry, species assumed): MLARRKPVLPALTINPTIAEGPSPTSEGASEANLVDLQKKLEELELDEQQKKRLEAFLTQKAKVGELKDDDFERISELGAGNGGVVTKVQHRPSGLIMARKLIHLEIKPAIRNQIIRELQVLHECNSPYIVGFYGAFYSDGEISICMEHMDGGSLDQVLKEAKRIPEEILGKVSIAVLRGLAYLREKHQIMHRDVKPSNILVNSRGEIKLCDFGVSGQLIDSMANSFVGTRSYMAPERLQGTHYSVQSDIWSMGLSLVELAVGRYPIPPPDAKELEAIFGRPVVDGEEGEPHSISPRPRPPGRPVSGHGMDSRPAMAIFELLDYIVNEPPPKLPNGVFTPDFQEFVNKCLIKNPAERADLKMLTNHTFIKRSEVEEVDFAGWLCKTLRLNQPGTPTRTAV
Outline: as §1

[16] = target: T14, PKCz (Homo sapiens, UniProt Q05513); conditions: 10 μM SCO-101, mean of assay duplicates, read-out: Kinase activity (percentage of DMSO control)
T14 construct: MRC Dundee (screening service)
Outline: as §1

[17] = target: T15, TTK (Homo sapiens, UniProt P33981); conditions: 10 μM SCO-101, mean of assay duplicates, read-out: Kinase activity (percentage of DMSO control)
T15 construct: MRC in Dundee (screening service)
Outline: as §1

[18] = target: T16, SGK1 (Homo sapiens, UniProt O00141, S422D); conditions: 10 μM SCO-101, mean of assay duplicates, read-out: Kinase activity (percentage of DMSO control)
T16 construct: purchased MRC Dundee, Premier Screen (contract screening service)
T16 sequence (O00141 60-431 S422D limits assumed, species assumed): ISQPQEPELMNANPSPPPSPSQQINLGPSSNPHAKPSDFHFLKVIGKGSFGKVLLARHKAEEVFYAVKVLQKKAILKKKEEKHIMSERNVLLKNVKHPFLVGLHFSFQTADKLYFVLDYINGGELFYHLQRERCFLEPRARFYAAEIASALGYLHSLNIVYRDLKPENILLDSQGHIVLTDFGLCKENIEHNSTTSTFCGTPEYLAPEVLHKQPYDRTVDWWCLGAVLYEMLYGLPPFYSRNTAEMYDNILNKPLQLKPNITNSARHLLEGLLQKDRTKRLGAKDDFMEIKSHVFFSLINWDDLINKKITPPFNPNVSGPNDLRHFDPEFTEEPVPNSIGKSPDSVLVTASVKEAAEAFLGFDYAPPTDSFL
Outline: as §1

[19] = target: T17, ERK1 (Homo sapiens, UniProt P27361); conditions: 10 μM SCO-101, mean of assay duplicates, read-out: Kinase activity (percentage of DMSO control)
T17 construct: purchased MRC in Dundee (Premier Screen service)
T17 sequence (P27361 whole entry, species assumed): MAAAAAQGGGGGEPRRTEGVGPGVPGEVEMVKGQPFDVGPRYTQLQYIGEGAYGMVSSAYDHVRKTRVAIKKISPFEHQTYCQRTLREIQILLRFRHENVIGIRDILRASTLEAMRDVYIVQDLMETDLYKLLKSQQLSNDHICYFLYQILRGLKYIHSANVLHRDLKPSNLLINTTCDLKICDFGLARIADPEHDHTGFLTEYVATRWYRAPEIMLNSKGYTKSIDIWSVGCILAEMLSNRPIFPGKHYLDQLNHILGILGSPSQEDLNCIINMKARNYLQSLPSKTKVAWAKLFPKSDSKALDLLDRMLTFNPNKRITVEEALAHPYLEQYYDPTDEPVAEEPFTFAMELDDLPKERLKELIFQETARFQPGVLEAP
Outline: as §1

[20] = target: CHK2 (Homo sapiens, UniProt O96017); conditions: 10 μM SCO-101, mean of assay duplicates, read-out: Kinase activity (percentage of DMSO control)
Outline: as §1

[21] = target: T18, Aurora A (Homo sapiens, UniProt O14965); conditions: 10 μM SCO-101, mean of assay duplicates, read-out: Kinase activity (percentage of DMSO control)
T18 construct: MRC in Dundee (screening service)
Outline: as §1

[22] = target: EPH-B2 (Homo sapiens, UniProt P29323); conditions: 10 μM SCO-101, mean of assay duplicates, read-out: Kinase activity (percentage of DMSO control)
Outline: as §1

[23] = target: T19, PIM3 (Homo sapiens, UniProt Q86V86); conditions: 10 μM SCO-101, mean of assay duplicates, read-out: Kinase activity (percentage of DMSO control)
T19 construct: purchased MRC in Dundee (Premier Screen service)
Outline: as §1

[24] = target: T20, TAK1 (Homo sapiens, UniProt O43318); conditions: 10 μM SCO-101, mean of assay duplicates, read-out: Kinase activity (percentage of DMSO control)
T20 construct: purchased MRC Dundee, Premier Screen (contract screening service)
T20 sequence (O43318 1-303 limits assumed): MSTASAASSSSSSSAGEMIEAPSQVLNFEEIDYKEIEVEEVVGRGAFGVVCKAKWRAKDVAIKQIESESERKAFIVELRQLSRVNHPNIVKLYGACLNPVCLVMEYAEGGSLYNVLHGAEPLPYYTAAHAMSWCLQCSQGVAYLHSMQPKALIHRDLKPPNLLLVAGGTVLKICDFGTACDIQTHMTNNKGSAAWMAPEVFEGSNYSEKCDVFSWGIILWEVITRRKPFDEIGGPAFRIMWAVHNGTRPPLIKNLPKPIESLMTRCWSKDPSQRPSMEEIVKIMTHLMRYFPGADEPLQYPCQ
T20 sequence (Q15750 437-504 partner limits assumed): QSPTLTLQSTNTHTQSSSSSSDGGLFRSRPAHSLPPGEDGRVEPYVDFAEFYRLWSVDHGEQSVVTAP
Outline: as §1

[25] = target: T21, EPH-A4 (Homo sapiens, UniProt P54764); conditions: 10 μM SCO-101, mean of assay duplicates, read-out: Kinase activity (percentage of DMSO control)
T21 construct: MRC Dundee (screening service)
Outline: as §1

[26] = target: HIPK3 (Homo sapiens, UniProt Q9H422); conditions: 10 μM SCO-101, mean of assay duplicates, read-out: Kinase activity (percentage of DMSO control)
Outline: as §1

[27] = target: T22, MINK1 (Homo sapiens, UniProt Q8N4C8); conditions: 10 μM SCO-101, mean of assay duplicates, read-out: Kinase activity (percentage of DMSO control)
T22 construct: purchased MRC in Dundee (Premier Screen service)
Outline: as §1

[28] = target: T23, JNK2 (Homo sapiens, UniProt P45984); conditions: 10 μM SCO-101, mean of assay duplicates, read-out: Kinase activity (percentage of DMSO control)
T23 construct: purchased MRC Dundee, Premier Screen (contract screening service)
T23 sequence (P45984 whole entry, species assumed): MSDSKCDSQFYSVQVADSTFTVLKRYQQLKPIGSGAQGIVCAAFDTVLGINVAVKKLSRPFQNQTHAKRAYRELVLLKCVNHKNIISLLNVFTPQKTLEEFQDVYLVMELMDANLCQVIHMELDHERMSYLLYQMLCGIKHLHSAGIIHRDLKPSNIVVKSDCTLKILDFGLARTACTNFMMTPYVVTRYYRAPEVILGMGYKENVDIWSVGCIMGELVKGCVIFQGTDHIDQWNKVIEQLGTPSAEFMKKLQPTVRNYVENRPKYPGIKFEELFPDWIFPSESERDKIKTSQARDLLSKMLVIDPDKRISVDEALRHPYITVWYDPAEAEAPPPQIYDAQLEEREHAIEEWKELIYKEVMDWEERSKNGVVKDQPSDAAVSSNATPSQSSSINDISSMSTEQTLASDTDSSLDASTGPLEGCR
Outline: as §1

[29] = target: T24, IGF-1R (Homo sapiens, UniProt P08069); conditions: 10 μM SCO-101, mean of assay duplicates, read-out: Kinase activity (percentage of DMSO control)
T24 construct: purchased MRC in Dundee (Premier Screen service)
T24 sequence (P08069 31-1367, species assumed): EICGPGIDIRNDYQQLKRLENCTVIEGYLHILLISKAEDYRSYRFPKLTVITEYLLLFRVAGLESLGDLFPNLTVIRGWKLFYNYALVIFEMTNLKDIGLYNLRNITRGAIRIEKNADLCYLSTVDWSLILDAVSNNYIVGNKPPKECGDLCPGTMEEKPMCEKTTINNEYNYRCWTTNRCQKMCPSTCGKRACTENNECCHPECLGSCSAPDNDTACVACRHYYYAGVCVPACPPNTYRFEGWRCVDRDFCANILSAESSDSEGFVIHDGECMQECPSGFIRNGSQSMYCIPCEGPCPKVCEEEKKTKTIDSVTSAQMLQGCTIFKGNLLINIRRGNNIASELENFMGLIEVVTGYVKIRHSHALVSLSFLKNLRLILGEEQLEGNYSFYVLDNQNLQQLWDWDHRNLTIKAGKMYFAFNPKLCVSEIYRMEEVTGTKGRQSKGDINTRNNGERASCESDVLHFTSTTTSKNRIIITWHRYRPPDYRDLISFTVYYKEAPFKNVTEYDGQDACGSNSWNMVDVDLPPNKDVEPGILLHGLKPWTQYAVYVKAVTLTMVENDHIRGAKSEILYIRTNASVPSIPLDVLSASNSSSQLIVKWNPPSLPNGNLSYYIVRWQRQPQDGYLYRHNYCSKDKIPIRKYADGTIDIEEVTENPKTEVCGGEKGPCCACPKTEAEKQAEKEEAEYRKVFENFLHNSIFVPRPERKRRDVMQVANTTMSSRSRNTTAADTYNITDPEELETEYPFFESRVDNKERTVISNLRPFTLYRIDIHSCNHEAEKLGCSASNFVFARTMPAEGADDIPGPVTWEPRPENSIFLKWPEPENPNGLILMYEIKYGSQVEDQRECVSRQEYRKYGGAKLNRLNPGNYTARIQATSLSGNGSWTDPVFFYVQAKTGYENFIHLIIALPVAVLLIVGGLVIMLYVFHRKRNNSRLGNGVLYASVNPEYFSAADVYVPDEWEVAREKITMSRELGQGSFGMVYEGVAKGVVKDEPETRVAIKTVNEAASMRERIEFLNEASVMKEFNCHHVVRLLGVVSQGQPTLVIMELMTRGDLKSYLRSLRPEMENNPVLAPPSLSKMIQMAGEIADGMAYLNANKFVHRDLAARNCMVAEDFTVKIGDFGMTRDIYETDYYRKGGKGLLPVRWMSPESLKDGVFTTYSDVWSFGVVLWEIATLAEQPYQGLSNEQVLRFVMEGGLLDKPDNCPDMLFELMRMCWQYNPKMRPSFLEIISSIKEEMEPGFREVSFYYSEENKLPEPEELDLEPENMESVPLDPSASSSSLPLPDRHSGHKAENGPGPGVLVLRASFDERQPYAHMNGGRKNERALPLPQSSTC
Outline: as §1

[30] = target: T25, WNK1 (Homo sapiens, UniProt Q9H4A3); conditions: 10 μM SCO-101, mean of assay duplicates, read-out: Kinase activity (percentage of DMSO control)
T25 construct: purchased MRC Dundee, Premier Screen (contract screening service)
Outline: as §1

[31] = target: T26, MAPKAP-K2 (Homo sapiens, UniProt P49137); conditions: 10 μM SCO-101, mean of assay duplicates, read-out: Kinase activity (percentage of DMSO control)
T26 construct: MRC Dundee (screening service)
Outline: as §1

[32] = target: MST4 (Homo sapiens, UniProt Q9P289); conditions: 10 μM SCO-101, mean of assay duplicates, read-out: Kinase activity (percentage of DMSO control)
Outline: as §1

[33] = target: T27, TGFBR1 (Homo sapiens, UniProt P36897); conditions: 10 μM SCO-101, mean of assay duplicates, read-out: Kinase activity (percentage of DMSO control)
T27 construct: purchased MRC Dundee, Premier Screen (contract screening service)
Outline: as §1

[34] = target: T28, PINK (Tribolium castaneum, UniProt D6WMX4); conditions: 10 μM SCO-101, mean of assay duplicates, read-out: Kinase activity (percentage of DMSO control)
T28 construct: purchased MRC Dundee, Premier Screen (contract screening service)
T28 sequence (D6WMX4 6-570): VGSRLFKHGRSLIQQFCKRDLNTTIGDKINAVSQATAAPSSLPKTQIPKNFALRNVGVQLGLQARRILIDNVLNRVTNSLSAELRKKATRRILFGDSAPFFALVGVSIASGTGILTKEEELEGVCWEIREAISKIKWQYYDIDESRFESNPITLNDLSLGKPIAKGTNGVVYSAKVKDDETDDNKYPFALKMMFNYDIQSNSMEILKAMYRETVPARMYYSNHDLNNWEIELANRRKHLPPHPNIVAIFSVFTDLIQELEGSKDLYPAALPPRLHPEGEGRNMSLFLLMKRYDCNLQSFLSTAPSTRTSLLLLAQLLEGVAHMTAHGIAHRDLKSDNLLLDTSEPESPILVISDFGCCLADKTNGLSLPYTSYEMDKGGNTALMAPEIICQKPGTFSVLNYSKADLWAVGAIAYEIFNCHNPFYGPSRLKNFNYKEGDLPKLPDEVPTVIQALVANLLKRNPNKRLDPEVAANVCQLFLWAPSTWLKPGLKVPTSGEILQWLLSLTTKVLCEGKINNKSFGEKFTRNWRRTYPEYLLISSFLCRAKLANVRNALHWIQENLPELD
Outline: as §1

[35] = target: TAO1; conditions: 10 μM SCO-101, mean of assay duplicates
Outline: as §1

[36] = target: PRK2 (Homo sapiens, UniProt Q16513); conditions: 10 μM SCO-101, mean of assay duplicates, read-out: Kinase activity (percentage of DMSO control)
Outline: as §1

In the case of O=C(Nc1cc(C(F)(F)F)cc(C(F)(F)F)c1)Nc1ccc(Br)cc1-c1nnn[nH]1 [SCO-101], the remaining activity at 10 µM [1] is reported as 90%, the remaining activity at 10 µM [2] is reported as 86% and the remaining activity at 10 µM [3] is reported as 49%. The remaining activity at 10 µM [4] was 95%, the remaining activity at 10 µM [5] was 95% and the remaining activity at 10 µM [6] was 110%. For the same compound, the remaining activity at 10 µM [7] was 94%, the remaining activity at 10 µM [8] was 116% and the remaining activity at 10 µM [9] was 101%. For the same compound, the remaining activity at 10 µM [10] was 90%, the remaining activity at 10 µM [11] was 108% and the remaining activity at 10 µM [12] was 105%. It also gave a remaining activity at 10 µM [13] of 121%, a remaining activity at 10 µM [14] of 81% and a remaining activity at 10 µM [15] of 94%. The remaining activity at 10 µM [16] was 101%, the remaining activity at 10 µM [17] was 88% and the remaining activity at 10 µM [18] was 103%. It also gave a remaining activity at 10 µM [19] of 137%, a remaining activity at 10 µM [20] of 114% and a remaining activity at 10 µM [21] of 94%. For the same compound, the remaining activity at 10 µM [22] was 117%, the remaining activity at 10 µM [23] was 49% and the remaining activity at 10 µM [24] was 107%. The remaining activity at 10 µM [25] was 101%, the remaining activity at 10 µM [26] was 121% and the remaining activity at 10 µM [27] was 173%. For the same compound, the remaining activity at 10 µM [28] was 105%, the remaining activity at 10 µM [29] was 128% and the remaining activity at 10 µM [30] was 105%. The remaining activity at 10 µM [31] was 100%, the remaining activity at 10 µM [32] was 117% and the remaining activity at 10 µM [33] was 111%. The remaining activity at 10 µM [34] was 104%, the “Kinase activity (percentage of DMSO control)” value [35] was 116 percentage of DMSO control and the remaining activity at 10 µM [36] was 120%.

From patent publication US20210251963A1, “UREA DERIVATIVES FOR USE IN THE TREATMENT OF SUBJECTS WITH ELEVATED EXPRESSION AND/OR ACTIVITY OF SRPK1” (Scandion Oncology A/S, priority 2018, published 2021)
